Data on 6 compounds can be found in patent US20070185077A1, “Methods of treating, preventing and inhibiting cancer metastasis and tumor formation” (Washington University, priority 2003, published 2007).

Bridge positions count the residues as written; N and C are the ends. Square brackets hold non-standard residues; d marks the D form. Peptide text beside a SMILES is read from it. Phe(4-CH2NH2) = NCc1ccc(C[C@H](N)C(=O)O)cc1; Thz(5,5-Me2) = CC1(C)SCN[C@@H]1C(=O)O; NMeR = CN[C@@H](CCCNC(=N)N)C(=O)O; 3Amb = NCc1cccc(C(=O)O)c1; dAbu = CC[C@@H](N)C(=O)O

As usually defined, the Kd is the free concentration of one partner at which half of the binding sites on the other are occupied at equilibrium, for simple one-to-one binding.

The target of series [1] is activated platelet GPIIb/IIIa receptors (Homo sapiens, UniProt P05106+P08514). The following applies: cited from earlier work; for affinity for activated versus resting platelet GPIIb/IIIa: resting vs activated form.
Sequence of activated platelet GPIIb/IIIa receptors (P08514 32-887 limits assumed): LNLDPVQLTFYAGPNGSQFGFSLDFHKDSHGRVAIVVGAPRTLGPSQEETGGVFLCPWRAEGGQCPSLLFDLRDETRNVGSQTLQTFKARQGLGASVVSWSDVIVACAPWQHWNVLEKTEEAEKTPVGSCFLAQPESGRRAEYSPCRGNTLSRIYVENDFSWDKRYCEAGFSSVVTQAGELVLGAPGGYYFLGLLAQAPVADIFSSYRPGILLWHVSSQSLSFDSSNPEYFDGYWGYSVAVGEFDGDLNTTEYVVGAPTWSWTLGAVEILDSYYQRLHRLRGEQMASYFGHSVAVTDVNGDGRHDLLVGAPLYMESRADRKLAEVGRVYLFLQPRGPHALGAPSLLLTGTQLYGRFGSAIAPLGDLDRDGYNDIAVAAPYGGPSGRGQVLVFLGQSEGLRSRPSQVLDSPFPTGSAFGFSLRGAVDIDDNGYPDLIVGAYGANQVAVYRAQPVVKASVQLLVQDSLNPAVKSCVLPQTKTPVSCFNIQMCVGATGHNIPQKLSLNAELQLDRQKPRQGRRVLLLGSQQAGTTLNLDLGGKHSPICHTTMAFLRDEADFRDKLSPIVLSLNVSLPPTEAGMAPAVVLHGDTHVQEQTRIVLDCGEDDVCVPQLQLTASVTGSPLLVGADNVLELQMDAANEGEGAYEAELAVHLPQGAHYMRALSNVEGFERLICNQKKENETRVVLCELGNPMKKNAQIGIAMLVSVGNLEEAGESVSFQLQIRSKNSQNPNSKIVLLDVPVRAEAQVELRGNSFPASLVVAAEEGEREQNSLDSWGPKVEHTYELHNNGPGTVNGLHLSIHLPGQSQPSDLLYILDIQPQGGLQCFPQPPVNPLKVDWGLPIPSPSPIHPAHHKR
Sequence of activated platelet GPIIb/IIIa receptors (P08514 891-1039 limits assumed): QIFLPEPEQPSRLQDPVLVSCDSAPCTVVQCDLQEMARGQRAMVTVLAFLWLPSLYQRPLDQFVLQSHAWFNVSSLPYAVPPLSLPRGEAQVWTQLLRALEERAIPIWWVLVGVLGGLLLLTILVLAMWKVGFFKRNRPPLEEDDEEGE
Sequence of activated platelet GPIIb/IIIa receptors (P05106 27-788): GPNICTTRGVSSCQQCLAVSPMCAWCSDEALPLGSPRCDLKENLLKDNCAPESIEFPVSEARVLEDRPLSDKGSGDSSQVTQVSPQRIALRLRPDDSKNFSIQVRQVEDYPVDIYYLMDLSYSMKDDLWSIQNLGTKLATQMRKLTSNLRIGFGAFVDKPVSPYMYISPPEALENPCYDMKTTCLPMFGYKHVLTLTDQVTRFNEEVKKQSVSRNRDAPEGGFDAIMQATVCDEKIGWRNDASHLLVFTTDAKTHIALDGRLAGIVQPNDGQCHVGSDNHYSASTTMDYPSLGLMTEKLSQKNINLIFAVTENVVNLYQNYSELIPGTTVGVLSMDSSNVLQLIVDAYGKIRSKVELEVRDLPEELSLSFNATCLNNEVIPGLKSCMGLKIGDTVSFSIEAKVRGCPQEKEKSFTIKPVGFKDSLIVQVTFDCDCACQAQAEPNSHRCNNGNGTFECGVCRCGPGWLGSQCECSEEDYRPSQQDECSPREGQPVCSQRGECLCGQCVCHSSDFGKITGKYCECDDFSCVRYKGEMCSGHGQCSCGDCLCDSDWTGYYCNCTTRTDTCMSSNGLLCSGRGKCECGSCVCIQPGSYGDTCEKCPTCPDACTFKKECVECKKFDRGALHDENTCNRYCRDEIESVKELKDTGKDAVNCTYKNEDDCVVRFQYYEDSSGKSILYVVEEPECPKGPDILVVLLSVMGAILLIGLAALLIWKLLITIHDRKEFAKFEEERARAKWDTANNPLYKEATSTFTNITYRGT
Series [2] has as its target platelet GPIIb/IIIa receptors (Homo sapiens, UniProt P05106+P08514). As to conditions: cited from earlier work.
Series [3] addresses resting platelet GPIIb/IIIa receptors (Homo sapiens, UniProt P05106+P08514). The following applies: resting form of GPIIb/IIIa; cited from earlier work.
Series [4] relates to B16 melanoma cells. The series is described as follows: B16 LV injection metastasis model in β3+/+ mice. It is filed as in vivo. The procedure: The activated αIIbβ3 receptor antagonist was tested based on its ability to diminish metastases in wild type mice. […] The mice were treated 30 minutes prior to the LV injection of 1×10^5 B16 cells, and then every 12 hours for 5 doses (2.5 days of treatment out of the 14 day experiment). 14/40 (35%) mice died from bleeding complications after the LV injection indicative of effective disruption of αIIbβ3 mediated platelet aggregation. 1/17 (6%) placebo treated mice died after the LV injection procedure. […] Placebo in DMSO carrier was also administered by oral gavage. Mice were evaluated 14 days after B16 injection for bone and visceral metastases.
Mice were anaesthetized followed by injection with 30 gauge needles of 1×10^5 B16 cells in 100 μl PBS into the left cardiac ventricle as previously described. Confirmation of correct insertion was established by pulsing geyser of blood in the syringe. After the injection mice were monitored daily for 14 days.
(§1) C57BI6 mice were used to analyze metastasis antagonism. […] Blockade of platelet aggregation is complete at 30 minutes after oral gavage but persists for up to 10 hours. […] Thirty minutes after the first oral-gavage dose, mice were LV injected with B16 cells and evaluated for metastases 14 days later.

The subject of series [5] is platelet aggregation. The series is described as follows: Platelet aggregation after in vivo oral administration (aggregometry from PRP). On the set-up: species or system mice. The following applies: after an oral dose of 100 mg/kg.
Description: An activated αIIbβ3 receptor antagonist in β3^+/+ mice was utilized in examples showing the role of platelet β3 integrin in the protection from bone metastases seen in the β3^−/− mouse. […] However, those skilled in the art will recognize that additional activated αIIbβ3 receptor antagonists may be used in the methods, the efficacies of which may be determined using the protocols of the present disclosure. Additional protocols are available to those skilled in the art to determine the efficacy of other activated αIIbβ3 receptor antagonists. Such activated αIIb3 receptor antagonists are meant to be encompassed within the scope of the present invention.
as §1

For series [6] the following is noted: cited from earlier work.

Sequence of platelet GPIIb/IIIa receptors (P08514 32-887 limits assumed): as the sequence (P08514 32-887 limits assumed) above
Sequence of platelet GPIIb/IIIa receptors (P08514 891-1039 limits assumed): as the sequence (P08514 891-1039 limits assumed) above
Sequence of platelet GPIIb/IIIa receptors (P05106 27-788): as the sequence (P05106 27-788) above
Sequence of resting platelet GPIIb/IIIa receptors (P08514 32-887 limits assumed): as the sequence (P08514 32-887 limits assumed) above
Sequence of resting platelet GPIIb/IIIa receptors (P08514 891-1039 limits assumed): as the sequence (P08514 891-1039 limits assumed) above
Sequence of resting platelet GPIIb/IIIa receptors (P05106 27-788): as the sequence (P05106 27-788) above

For `CC[C@H]1NC(=O)c2cccc(c2)CNC(=O)[C@H](CC(=O)O)NC(=O)CNC(=O)[C@H](CCCN=C(N)N)N(C)C1=O.CS(=O)(=O)O` [DMP728] (cyclo([NMeR]GD[3Amb][dAbu])), the “affinity for activated versus resting platelet GPIIb/IIIa” value in series [1] is recorded as “much higher affinity to the activated form”. Also, in series [2], the platelet dissociation rate result is recorded as “relatively fast”.
Take `CC(=O)N[C@H]1CSSC[C@@H](C(=O)O)NC(=O)[C@H](CC(=O)O)NC(=O)CNC(=O)[C@H](Cc2ccc(CN)cc2)NC(=O)[C@H]2N(CSC2(C)C)C(=O)[C@@H](CC(N)=O)NC1=O` [MK852] (Ac-C[dN][Thz(5,5-Me2)][Phe(4-CH2NH2)]GDC-OH; disulfide 1-7): the “affinity for activated versus resting platelet GPIIb/IIIa” value in series [1] was “much higher affinity to the activated form”. Moreover, the platelet dissociation rate result in series [2] is reported as “relatively fast”.
Take `C[C@H](CC(=O)O)NC(=O)CN1CCC[C@@H](CCC2CCNCC2)C1=O` [L734217]: the Kd in series [3] was 620 nM; in series [1] (activated form of GPIIb/IIIa), 5 nM. The “affinity for activated versus resting platelet GPIIb/IIIa” value in series [1] is “much higher affinity to the activated form”. Moreover, the platelet dissociation rate entry in series [2] is “relatively fast”.
Regarding `CCCCOC(=O)N[C@@H](CNC(=O)C[C@H]1CC(c2ccc(C(=N)N)cc2)=NO1)C(=O)OC` [roxifiban], the “affinity for activated versus resting platelet GPIIb/IIIa” value in series [1] is “comparable Kd values”. In series [2], the platelet dissociation rate result was “relatively slow”.
In the case of `CCOC(=O)CCNC(=O)N1CCC2(CC1)CCN(c1ccc(C(=N)NO)cc1)C2=O` [ML464], the “surviving mice with bone metastases” value in series [4] (100 mg/Kg oral every 12 hours for 5 doses, 14 days after B16 LV injection, vehicle 76%, P=0.0013) worked out at 23%. Moreover, the “visceral metastases versus placebo” value in series [4] (100 mg/Kg oral every 12 hours for 5 doses, day 14, P=0.0125) is given as “decrease”. Moreover, the “mice died from bleeding complications after the LV injection” value in series [4] (100 mg/Kg oral gavage, 30 minutes prior to LV injection, 14/40 mice) is listed as 35%. Moreover, the “number and size of visceral metastases versus placebo group” value in series [4] (mice that did develop metastases, tumor sizes not measured) is recorded as “reduced”. For the same compound, the “metastases in inhibitor treated mice compared to placebo treated mice” value in series [4] (β3+/+ mice, FIG. 5(b)) is listed as “decrease of metastases”. Also, the “duration of disruption of platelet aggregation” value in series [5] was “up to 10 hours”.
Take “Abciximab: Fab fragment of the chimeric human-murine monoclonal antibody 7E3”: the “human antibody response to the chimeric antibody, patients” value in series [6] is “approximately 6%”.
